Data from ChEMBL document CHEMBL1153520, “A multivalent approach to the design and discovery of orally efficacious 5-HT4 receptor agonists” (J Med Chem, 2009).

Assays:
[1] = molecular target: T1, 5-hydroxytryptamine receptor 4 (Homo sapiens, UniProt Q13639); assay: Agonist activity at human 5HT4C receptor expressed in HEK293 cells assessed as accumulation of cAMP by flash plate adenylyl cyclase activation assay; type: functional, cell-based
[2] = Permeability across human Caco-2 cells assessed as permeability coefficient; type: ADME, cell-based; settings: read-out: permeability
[3] = molecular target: T1, 5-hydroxytryptamine receptor 4; assay: Displacement of [H]GR-113808 from human 5HT4C receptor expressed in HEK293 cells by liquid scintillation counting; type: cell-based
[4] = molecular target: hERG (KCNH2) (Homo sapiens, UniProt Q12809); assay: Inhibition of human ERG potassium channel expressed in CHO-K1 cells at 3 uM by whole cell voltage clamp assay; type: cell-based; settings: CHO-K1 cells expressing human ERG potassium channel
Chain of hERG (KCNH2) (Q12809 whole entry): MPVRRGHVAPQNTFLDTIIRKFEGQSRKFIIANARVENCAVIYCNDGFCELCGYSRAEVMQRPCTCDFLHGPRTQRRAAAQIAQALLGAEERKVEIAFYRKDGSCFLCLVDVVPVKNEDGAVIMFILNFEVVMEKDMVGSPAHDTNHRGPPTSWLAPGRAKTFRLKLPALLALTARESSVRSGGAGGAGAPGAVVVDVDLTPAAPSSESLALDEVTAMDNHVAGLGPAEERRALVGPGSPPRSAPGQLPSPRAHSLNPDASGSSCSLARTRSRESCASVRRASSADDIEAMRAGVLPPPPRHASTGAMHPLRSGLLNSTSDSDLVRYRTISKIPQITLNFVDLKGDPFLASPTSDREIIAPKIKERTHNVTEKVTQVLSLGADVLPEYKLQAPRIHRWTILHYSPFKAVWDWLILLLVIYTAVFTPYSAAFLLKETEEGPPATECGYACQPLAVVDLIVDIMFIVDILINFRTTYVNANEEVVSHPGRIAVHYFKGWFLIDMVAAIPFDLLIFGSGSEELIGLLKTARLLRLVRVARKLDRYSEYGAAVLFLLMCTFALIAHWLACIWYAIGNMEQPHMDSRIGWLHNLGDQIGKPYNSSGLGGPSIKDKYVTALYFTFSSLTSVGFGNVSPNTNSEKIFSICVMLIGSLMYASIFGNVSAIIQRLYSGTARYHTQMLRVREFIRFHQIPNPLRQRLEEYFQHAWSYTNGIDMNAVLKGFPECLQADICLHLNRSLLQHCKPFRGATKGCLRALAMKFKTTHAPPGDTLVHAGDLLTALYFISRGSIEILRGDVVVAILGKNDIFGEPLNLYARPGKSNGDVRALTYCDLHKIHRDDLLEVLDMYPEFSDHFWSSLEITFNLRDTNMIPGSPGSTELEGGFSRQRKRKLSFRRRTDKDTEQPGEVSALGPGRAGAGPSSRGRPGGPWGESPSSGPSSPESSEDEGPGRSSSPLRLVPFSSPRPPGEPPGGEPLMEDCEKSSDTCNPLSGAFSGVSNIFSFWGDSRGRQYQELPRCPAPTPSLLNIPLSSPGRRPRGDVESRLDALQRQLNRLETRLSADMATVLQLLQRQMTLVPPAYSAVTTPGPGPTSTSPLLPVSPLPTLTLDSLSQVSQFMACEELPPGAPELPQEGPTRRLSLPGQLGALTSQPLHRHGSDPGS

[5] = species: Homo sapiens; assay: Selectivity ratio of Ki for human 5HT3A receptor to Ki for human 5HT4C receptor
[6] = molecular target: T1, 5-hydroxytryptamine receptor 4; assay: Intrinsic activity at human 5HT4C receptor expressed in HEK293 cells assessed as accumulation of cAMP by flash plate adenylyl cyclase activation assay relative to serotonin; type: functional, cell-based

T1 sequence (Q13639 whole entry): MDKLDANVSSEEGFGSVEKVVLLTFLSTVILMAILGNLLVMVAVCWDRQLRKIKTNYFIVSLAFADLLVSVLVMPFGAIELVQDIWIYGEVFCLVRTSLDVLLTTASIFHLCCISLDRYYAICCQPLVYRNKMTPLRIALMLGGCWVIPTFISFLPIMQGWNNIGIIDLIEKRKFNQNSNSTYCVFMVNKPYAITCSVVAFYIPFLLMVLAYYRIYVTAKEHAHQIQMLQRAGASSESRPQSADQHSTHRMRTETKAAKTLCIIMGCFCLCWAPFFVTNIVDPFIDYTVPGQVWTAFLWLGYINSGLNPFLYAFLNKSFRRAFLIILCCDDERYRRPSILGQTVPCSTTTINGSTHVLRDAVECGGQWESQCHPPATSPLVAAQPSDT

Structure (SMILES) | EC50 [1] [nM] | Papp [2] [×10⁻⁶ cm/s] | Ki [3] [nM] | inhibition at 3 µM [4] [%] | Ratio Ki [5] | Intrinsic activity [6] [%]
CC(C)n1c(=O)c(C(=O)N[C@H]2C[C@H]3CC[C@@H](C2)N3CCCN2CCOCC2)cc2ccccc21 | 2.51 | 22 | 39.8 | 80 | 750 | > 100
CCOC(=O)N1CCN(CCCCCCCN2[C@@H]3CC[C@H]2C[C@@H](NC(=O)c2cc4ccccc4n(C(C)C)c2=O)C3)CC1 | 3.16 | 14 | 7.94 | 87 | 810 | > 100
CC(C)n1c(=O)c(C(=O)N[C@H]2C[C@H]3CC[C@@H](C2)N3CC(O)CN2CCN(S(C)(=O)=O)CC2)cc2ccccc21 (mixture of isomers) | 0.794 | 19 | 20 | 10 | 2400 | > 100
CCOC(=O)N1CCN(CCCN2[C@@H]3CC[C@H]2C[C@@H](NC(=O)c2cc4ccccc4n(C(C)C)c2=O)C3)CC1 | 2.51 | 31 | 39.8 | 75 | 1300 | > 100
CC(C)n1c(=O)c(C(=O)N[C@H]2C[C@H]3CC[C@@H](C2)N3CCCCCCCN2CCOCC2)cc2ccccc21 | 2.51 | 28 | 2 | 34 | 1600 | > 100
CC(C)n1c(=O)c(C(=O)N[C@H]2C[C@H]3CC[C@@H](C2)N3CCCN(C)CCCN(C)S(C)(=O)=O)cc2ccccc21 | 10 | 4 | 200 | 6 | 210 | > 100
CC(C)n1c(=O)c(C(=O)N[C@H]2C[C@H]3CC[C@@H](C2)N3CCCN2CCCCC2)cc2ccccc21 | 2 | 24 | 6.31 | 39 | 9200 | > 100
CC(C)n1c(=O)c(C(=O)N[C@H]2C[C@H]3CC[C@@H](C2)N3CCCCCCCN2CCC[C@@H]2C(N)=O)cc2ccccc21 | 0.398 | 9 | 2 | 7 | 20000 | > 100
CC(C)n1c(=O)c(C(=O)N[C@H]2C[C@H]3CC[C@@H](C2)N3C[C@H](O)CN2CCN(S(C)(=O)=O)CC2)cc2ccccc21 | 1.26 | 20 | 50.1 | 6 | 1300 | > 100
CC(C)n1c(=O)c(C(=O)N[C@H]2C[C@H]3CC[C@@H](C2)N3CCCCCCCN2CCC(CNS(C)(=O)=O)CC2)cc2ccccc21 | 0.631 | 2 | 2.51 | 5 | 3100 | 98
CC(C)n1c(=O)c(C(=O)N[C@H]2C[C@H]3CC[C@@H](C2)N3CCCCCCCN2CCCCC2)cc2ccccc21 | 0.794 | 23 | 2.51 | 9 | 10000 | 90
CC(C)n1c(=O)c(C(=O)N[C@H]2C[C@H]3CC[C@@H](C2)N3CCCCCN(C)CCc2c[nH]c3ccccc23)cc2ccccc21 | 0.631 | – | 3.16 | – | 6000 | > 100
COc1cc(N)c(Cl)cc1C(=O)NC1CCN(CCCCCN(C)CCc2c[nH]c3ccccc23)CC1 | 1.26 | – | 1.58 | – | 12000 | > 100
COc1cc(N)c(Cl)cc1C(=O)NC1CCN(CCCCCO)CC1 | 15.8 | – | 63.1 | – | 110 | > 100
COc1cc(N)c(Cl)cc1C(=O)NC1CCN(CCN2CCN(S(C)(=O)=O)CC2)CC1 | 20 | – | 126 | – | 21 | 97
COc1cc(N)c(Cl)cc1C(=O)NCC1CCNCC1 | 398 | – | 316 | – | 0.12 | 81

Structure (SMILES) | EC50 [1] [nM] | Papp [2] [×10⁻⁶ cm/s] | Ki [3] [nM] | inhibition at 3 µM [4] [%] | Ratio Ki [5] | Intrinsic activity [6] [%]
COc1cc(N)c(Cl)cc1C(=O)NC1CCN(CCCCCN2CCN(S(C)(=O)=O)CC2)CC1 | 12.6 | – | 39.8 | – | 280 | > 100
CC(C)n1c(=O)n(C(=O)NCCN2CCNCC2)c2ccccc21 | 7.94 | – | 126 | – | 1 | > 100
COc1cc(N)c(Cl)cc1C(=O)NC1CCN(CCCCCCCCN(C)CCc2c[nH]c3ccccc23)CC1 | 0.794 | – | 1.26 | – | 2800 | > 100
CC(C)n1c(=O)c(C(=O)N[C@H]2C[C@H]3CC[C@@H](C2)N3CCN2CCCCC2)cc2ccccc21 | 10 | – | 79.4 | – | 720 | > 100
CC(C)n1c(=O)c(C(=O)N[C@H]2C[C@H]3CC[C@@H](C2)N3CCCCCCCCN2CCCCC2)cc2ccccc21 | 1.26 | – | 3.16 | – | 9900 | 99
CC(C)n1c(=O)c(C(=O)N[C@H]2C[C@H]3CC[C@@H](C2)N3CCCCCCCCN(C)CCc2c[nH]c3ccccc23)cc2ccccc21 | 1 | – | 3.16 | – | 2300 | > 100
COc1cc(N)c(Cl)cc1C(=O)NC1CCN(CCS(=O)(=O)O)CC1 | 1580 | – | 25100 | – | 1.5 | > 100
CC(C)n1nc(C(=O)NC2CCNCC2)c2ccccc21 | 200 | – | 398 | – | 0.52 | 50
COc1ccc2[nH]cc(C(=O)N[C@H]3C[C@H]4CC[C@@H](C3)N4)c2c1 | 2510 | – | 3160 | – | 1.4 | 77
CC(C)n1c(=O)c(C(=O)N[C@H]2C[C@H]3CC[C@@H](C2)N3CCS(=O)(=O)O)cc2ccccc21 | 6.31 | – | 1000 | – | 49 | > 100
COc1cc(N)c(Cl)cc1C(=O)N[C@H]1C[C@H]2CC[C@@H](C1)N2 | 100 | – | 158 | – | 0.2 | 57
COc1cc(N)c(Cl)cc1C(=O)NC1CCN(CCCCCCCCN2C(=O)c3ccccc3C2=O)CC1 | 3.16 | – | 39.8 | – | 40 | 89
COc1cc(N)c(Cl)cc1C(=O)NC1CCN(CCCCCCCCS(=O)(=O)O)CC1 | 1000 | – | 15800 | – | 4.3 | > 100
COc1cc(N)c(Cl)cc1C(=O)NC1CCN(CCO)CC1 | 63.1 | – | 200 | – | 1.9 | > 100
CC(C)n1c(=O)c(C(=O)N[C@H]2C[C@H]3CC[C@@H](C2)N3CCCCCS(=O)(=O)O)cc2ccccc21 | 12.6 | – | 1580 | – | 21 | > 100
COc1cc(N)c(Cl)cc1C(=O)NC1CCN(CCN(C)CCc2c[nH]c3ccccc23)CC1 | 15.8 | – | 39.8 | – | 290 | > 100
